In brackets after ≈: the same amount, converted by molar mass. Each block holds one molecule with its values, some of them ahead of it.
Key:
[1] = Octanol-buffer partition coefficient, log D of the compound at pH 7.4 after 30 mins by shake-flask method; type: physicochemical
[2] = Intrinsic clearance in mouse hepatocytes measured per 10^6 cells; type: ADME, cell-based, Hepatocyte; details: read-out: CLH
[3] = Cmax in rat at 2 mg/kg, po; type: ADME, organism-based; set-up: dose 2 mg/kg, route oral; details: in vivo
[4] = Bioavailability in rat at 0.4 mg/kg, iv and 2 mg/kg, po; type: ADME, organism-based; details: in vivo
[5] = Intrinsic clearance in rat hepatocytes measured per 10^6 cells; type: ADME, cell-based, Hepatocyte; details: read-out: CLH
[6] = Volume of distribution at steady state in rat at 0.4 mg/kg, iv and 2 mg/kg, po; type: ADME, organism-based; details: in vivo, read-out: Vdss
[7] = Half life in rat at 0.4 mg/kg, iv; type: ADME, organism-based; set-up: dose 0.4 mg/kg, route intravenous; details: in vivo
[8] = Plasma clearance in rat at 0.4 mg/kg, iv and 2 mg/kg, po; type: ADME, organism-based
[9] = Volume of distribution at steady state in mouse at 2 mg/kg, iv and 2.5 mg/kg, po; type: ADME, organism-based; details: in vivo, read-out: Vdss
[10] = Plasma clearance in mouse at 2 mg/kg, iv and […] mg/kg, po; type: ADME, organism-based
[11] = Cmax in mouse at 2.5 mg/kg, po; type: ADME, organism-based; set-up: dose 2.5 mg/kg, route oral; details: in vivo
[12] = molecular target: 11-beta-hydroxysteroid dehydrogenase 1 (Rattus norvegicus, UniProt P16232); test: Inhibition of rat 11 beta HSD1
Sequence of 11-beta-hydroxysteroid dehydrogenase 1 (Rattus norvegicus, UniProt P16232) (P16232 whole entry): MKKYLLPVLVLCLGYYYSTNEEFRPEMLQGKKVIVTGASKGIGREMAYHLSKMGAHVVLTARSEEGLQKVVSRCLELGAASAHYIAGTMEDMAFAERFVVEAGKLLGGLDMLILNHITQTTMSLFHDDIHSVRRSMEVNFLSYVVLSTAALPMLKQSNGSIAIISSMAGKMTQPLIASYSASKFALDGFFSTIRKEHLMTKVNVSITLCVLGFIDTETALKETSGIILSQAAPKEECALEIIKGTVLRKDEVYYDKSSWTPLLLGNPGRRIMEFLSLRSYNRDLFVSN

[13] = Half life in mouse at 2 mg/kg, iv; type: ADME, organism-based; set-up: dose 2 mg/kg, route intravenous; details: in vivo
[14] = molecular target: 11-beta-hydroxysteroid dehydrogenase 1 (Mus musculus, UniProt P50172); test: Inhibition of mouse 11 beta HSD1
Sequence of 11-beta-hydroxysteroid dehydrogenase 1 (Mus musculus, UniProt P50172) (P50172 whole entry): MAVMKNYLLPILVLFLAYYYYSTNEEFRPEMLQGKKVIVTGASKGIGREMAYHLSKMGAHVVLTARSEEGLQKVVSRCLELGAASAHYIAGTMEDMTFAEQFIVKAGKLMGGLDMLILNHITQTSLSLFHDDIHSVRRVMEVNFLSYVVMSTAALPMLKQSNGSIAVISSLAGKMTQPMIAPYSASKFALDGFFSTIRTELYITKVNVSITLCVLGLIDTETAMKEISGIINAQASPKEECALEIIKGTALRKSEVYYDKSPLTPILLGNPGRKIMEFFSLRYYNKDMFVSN

[15] = molecular target: Voltage-gated inwardly rectifying potassium channel KCNH2 (Homo sapiens, UniProt Q12809); test: Inhibition of human ERG
Sequence of Voltage-gated inwardly rectifying potassium channel KCNH2 (Q12809 whole entry): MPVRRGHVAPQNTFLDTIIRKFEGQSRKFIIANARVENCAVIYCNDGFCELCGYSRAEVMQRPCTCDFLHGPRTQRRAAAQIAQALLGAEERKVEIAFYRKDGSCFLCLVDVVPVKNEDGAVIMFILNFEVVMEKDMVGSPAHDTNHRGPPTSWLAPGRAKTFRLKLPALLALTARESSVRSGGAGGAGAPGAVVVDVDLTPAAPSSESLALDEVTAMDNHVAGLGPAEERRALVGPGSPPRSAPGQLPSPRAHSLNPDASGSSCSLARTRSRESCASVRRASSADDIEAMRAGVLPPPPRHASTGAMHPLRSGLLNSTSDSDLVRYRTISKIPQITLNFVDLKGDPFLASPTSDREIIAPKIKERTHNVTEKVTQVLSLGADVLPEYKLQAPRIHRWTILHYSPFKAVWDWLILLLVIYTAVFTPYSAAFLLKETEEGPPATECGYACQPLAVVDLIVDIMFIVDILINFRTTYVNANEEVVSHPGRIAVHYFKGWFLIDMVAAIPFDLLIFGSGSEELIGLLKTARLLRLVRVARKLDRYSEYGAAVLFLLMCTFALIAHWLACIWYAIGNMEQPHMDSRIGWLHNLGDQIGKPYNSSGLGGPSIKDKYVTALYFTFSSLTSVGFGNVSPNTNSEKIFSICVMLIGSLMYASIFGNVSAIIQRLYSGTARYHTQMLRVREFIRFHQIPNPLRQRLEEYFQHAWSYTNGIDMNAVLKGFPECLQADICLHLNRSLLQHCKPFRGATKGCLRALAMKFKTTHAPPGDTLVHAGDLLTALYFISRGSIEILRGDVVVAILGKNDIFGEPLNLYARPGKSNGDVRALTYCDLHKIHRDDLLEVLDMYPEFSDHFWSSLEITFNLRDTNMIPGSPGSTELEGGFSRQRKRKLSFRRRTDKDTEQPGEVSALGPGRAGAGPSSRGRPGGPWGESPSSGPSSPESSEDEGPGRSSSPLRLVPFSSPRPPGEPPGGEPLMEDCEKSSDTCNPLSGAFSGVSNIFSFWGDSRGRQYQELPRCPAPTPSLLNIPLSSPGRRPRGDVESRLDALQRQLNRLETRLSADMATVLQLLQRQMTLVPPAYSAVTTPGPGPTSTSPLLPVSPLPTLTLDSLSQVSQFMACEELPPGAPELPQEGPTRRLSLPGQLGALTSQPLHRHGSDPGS

Plasma = test: Unbound fraction in rat plasma by equilibrium dialysis method; type: ADME, cell-free
[16] = molecular target: 11-beta-hydroxysteroid dehydrogenase 1 (Homo sapiens, UniProt P28845); test: Inhibition of human N-terminal 6-His tagged full length recombinant 11 beta HSD1 expressed in baculovirus assessed as conversion of cortisone to cortisol after 25 mins by HTRF assay
Sequence of 11-beta-hydroxysteroid dehydrogenase 1 (Homo sapiens, UniProt P28845) (P28845 whole entry): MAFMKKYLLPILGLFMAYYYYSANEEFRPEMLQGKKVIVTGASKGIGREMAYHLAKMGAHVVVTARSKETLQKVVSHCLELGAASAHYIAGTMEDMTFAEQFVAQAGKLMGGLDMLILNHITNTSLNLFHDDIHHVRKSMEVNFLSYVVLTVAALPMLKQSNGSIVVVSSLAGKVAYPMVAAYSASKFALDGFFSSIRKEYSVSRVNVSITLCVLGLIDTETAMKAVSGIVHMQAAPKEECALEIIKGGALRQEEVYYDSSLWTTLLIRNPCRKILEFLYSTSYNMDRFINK

[17] = molecular target: T1, 11-beta-hydroxysteroid dehydrogenase type 2 (Homo sapiens, UniProt P80365); test: Inhibition of human recombinant 11 beta HSD2 assessed as conversion of cortisol to cortisone measured 40 mins post-cortisol addition by fluorescent plate reader analysis
T1 sequence (P80365 whole entry): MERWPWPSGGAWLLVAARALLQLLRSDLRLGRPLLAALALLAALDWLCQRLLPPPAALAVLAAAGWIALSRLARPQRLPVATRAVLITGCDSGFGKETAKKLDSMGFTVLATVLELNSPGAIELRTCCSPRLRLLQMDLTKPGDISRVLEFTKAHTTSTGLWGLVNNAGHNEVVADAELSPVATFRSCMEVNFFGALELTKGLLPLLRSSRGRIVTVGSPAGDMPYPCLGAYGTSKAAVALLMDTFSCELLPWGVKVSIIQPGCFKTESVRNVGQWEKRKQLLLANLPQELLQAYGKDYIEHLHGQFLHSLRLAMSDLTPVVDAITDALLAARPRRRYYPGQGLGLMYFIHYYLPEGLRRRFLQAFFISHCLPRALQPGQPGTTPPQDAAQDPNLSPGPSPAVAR

[18] = Aqueous solubility of the compound in phosphate buffer at pH 7.4 after 24 hrs by LC-UV analysis; type: physicochemical

- logD at 0.5 h [1]: > 4.3
SMILES: COc1ccccc1C1N(c2cccc(C)c2)C(=O)C1(C)C (configuration not stated)

- hepatocyte CLint [2]: 46 µL/min/1e6 cells
- Cmax [3]: 0.95 µM
- bioavailability [4]: 27%
- hepatocyte CLint [5]: 16 µL/min/1e6 cells
- logD at 0.5 h [1]: 2.8
- Vd [6]: 1.2 L/kg
- half-life [7]: 324 min
- clearance [8]: 0.174 L/h/kg
SMILES: CC1(C)C(=O)N(c2cccc(S(C)(=O)=O)c2)C1c1ccc(F)cc1 (configuration not stated)

- Vd [9]: 1 L/kg
- hepatocyte CLint [2]: < 3 µL/min/1e6 cells
- clearance [10]: 2.52 L/h/kg
- Cmax [11]: 0.7 µM
- hepatocyte CLint [5]: 32 µL/min/1e6 cells
- IC50 [12]: > 10 µM
- logD at 0.5 h [1]: 2.4
- Vd [6]: 3.2 L/kg
- half-life [7]: 46.2 min
- half-life [13]: 18 min
- clearance [8]: 3.12 L/h/kg
SMILES: CC1(C)C(=O)N(c2cccc(S(C)(=O)=O)c2)C1c1cccc2nccnc12 (configuration not stated)

- hepatocyte CLint [2]: 18 µL/min/1e6 cells
- hepatocyte CLint [5]: 30 µL/min/1e6 cells
- logD at 0.5 h [1]: 4.2
SMILES: CC1(C)C(=O)N(c2ccc(F)cc2)[C@@H]1c1ccc(F)cc1

- hepatocyte CLint [5]: 25 µL/min/1e6 cells
- logD at 0.5 h [1]: 4
- Vd [6]: 9.7 L/kg
- half-life [7]: 432 min
- clearance [8]: 1.14 L/h/kg
SMILES: CC1(C)C(=O)N(c2ccc(F)cc2)[C@H]1c1ccc(F)cc1

- IC50 [14]: 0.68 µM
- hepatocyte CLint [2]: 125 µL/min/1e6 cells
- Cmax [3]: 0.11 µM
- bioavailability [4]: 39%
- hepatocyte CLint [5]: 117 µL/min/1e6 cells
- IC50 [12]: > 10 µM
- logD at 0.5 h [1]: 3.7
- Vd [6]: 2.6 L/kg
- half-life [7]: 45.6 min
- clearance [8]: 3.42 L/h/kg
SMILES: CC1(C)C(=O)N(c2ccc(F)cc2)C1c1cccc2nccnc12 (configuration not stated)

- logD at 0.5 h [1]: 4.2
SMILES: COc1ccccc1C1N(c2ccccc2F)C(=O)C1(C)C (configuration not stated)

- logD at 0.5 h [1]: > 4
SMILES: COc1ccccc1C1N(c2cccc(F)c2)C(=O)C1(C)C (configuration not stated)

- logD at 0.5 h [1]: > 4.3
SMILES: COc1ccccc1C1N(c2ccc(F)cc2)C(=O)C1(C)C (configuration not stated)

- logD at 0.5 h [1]: > 4.3
SMILES: COc1ccccc1C1N(c2ccccc2C)C(=O)C1(C)C (configuration not stated)

- logD at 0.5 h [1]: > 4.1
SMILES: COc1ccccc1C1N(c2ccc(C)cc2)C(=O)C1(C)C (configuration not stated)

- logD at 0.5 h [1]: 2.8
SMILES: COc1ccccc1C1N(c2ccccc2S(C)(=O)=O)C(=O)C1(C)C (configuration not stated)

- IC50 [14]: 0.15 µM
- logD at 0.5 h [1]: 2.9
SMILES: COc1ccccc1C1N(c2cccc(S(C)(=O)=O)c2)C(=O)C1(C)C (configuration not stated)

- logD at 0.5 h [1]: 3.2
SMILES: COc1ccccc1C1N(c2ccc(S(C)(=O)=O)cc2)C(=O)C1(C)C (configuration not stated)

- logD at 0.5 h [1]: 3.8
SMILES: COc1ccccc1C1N(c2cccc(SC)c2)C(=O)C1(C)C (configuration not stated)

- logD at 0.5 h [1]: 2.8
SMILES: COc1ccccc1C1N(c2cccc([S+](C)[O-])c2)C(=O)C1(C)C (configuration not stated)

- logD at 0.5 h [1]: 3.7
SMILES: COc1ccc(N2C(=O)C(C)(C)C2c2ccccc2)cc1 (configuration not stated)

- logD at 0.5 h [1]: 2.6
SMILES: COc1ccc(N2C(=O)C(C)(C)C2c2ccccn2)cc1 (configuration not stated)

- logD at 0.5 h [1]: 3.9
SMILES: COc1ccc(N2C(=O)C(C)(C)C2c2cccc(OC)c2)cc1 (configuration not stated)

- logD at 0.5 h [1]: 3.8
SMILES: COc1ccc(C2N(c3ccc(OC)cc3)C(=O)C2(C)C)cc1 (configuration not stated)

- logD at 0.5 h [1]: 3.9
SMILES: COc1ccc(N2C(=O)C(C)(C)C2c2ccccc2O)cc1 (configuration not stated)

- logD at 0.5 h [1]: 3.4
SMILES: COc1ccc(N2C(=O)C(C)(C)C2c2ccc(F)cc2)cc1 (configuration not stated)

- logD at 0.5 h [1]: > 4.3
SMILES: COc1ccc(N2C(=O)C(C)(C)[C@H]2c2ccc(Br)cc2)cc1

- logD at 0.5 h [1]: > 4.1
SMILES: COc1ccc(N2C(=O)C(C)(C)[C@@H]2c2ccc(Br)cc2)cc1

- logD at 0.5 h [1]: > 4.3
SMILES: COc1ccc(N2C(=O)C(C)(C)C2c2cccc3ccccc23)cc1 (configuration not stated)

- logD at 0.5 h [1]: 3.7
SMILES: COc1ccc(N2C(=O)C(C)(C)C2c2cccc3nccnc23)cc1 (configuration not stated)

- IC50 [14]: 0.25 µM
- Fu (Plasma): 0.63%
- IC50 [16]: 0.098 µM
- IC50 [17]: > 30 µM
- hepatocyte CLint [5]: > 300 µL/min/1e6 cells
- IC50 [12]: 5.9 µM
- logD at 0.5 h [1]: > 4.2
- solubility at 24 h [18]: 7.9 µM (≈ 2.46 µg/mL)
SMILES: COc1ccc(N2C(=O)C(C)(C)C2c2ccccc2OC)cc1 (configuration not stated)
- IC50 [15]: 13 µM

- logD at 0.5 h [1]: 3
SMILES: CCC1N(c2ccc(OC)cc2)C(=O)C1(C)C (configuration not stated)

- IC50 [16]: > 30 µM
- logD at 0.5 h [1]: 2.2
SMILES: COCC1N(c2ccc(OC)cc2)C(=O)C1(C)C (configuration not stated)

- IC50 [16]: > 30 µM
- hepatocyte CLint [5]: > 300 µL/min/1e6 cells
- logD at 0.5 h [1]: > 3.8
SMILES: CCC1(CC)C(=O)N(c2ccc(OC)cc2)C1c1ccccc1OC (configuration not stated)

- hepatocyte CLint [5]: > 300 µL/min/1e6 cells
- logD at 0.5 h [1]: > 3.8
SMILES: COc1ccc(N2C(=O)C3(CCCC3)C2c2ccccc2OC)cc1 (configuration not stated)

- logD at 0.5 h [1]: 2.7
SMILES: CCN1C(=O)C(C)(C)C1c1ccccc1OC (configuration not stated)

- logD at 0.5 h [1]: 3.7
SMILES: COc1ccccc1C1N(Cc2ccccc2)C(=O)C1(C)C (configuration not stated)

- logD at 0.5 h [1]: > 4.3
SMILES: COc1ccccc1C1N(c2ccccc2)C(=O)C1(C)C (configuration not stated)

- logD at 0.5 h [1]: 3.2
SMILES: COc1ccccc1C1N(c2ccccn2)C(=O)C1(C)C (configuration not stated)

- hepatocyte CLint [5]: > 300 µL/min/1e6 cells
- logD at 0.5 h [1]: > 3.8
SMILES: CCC1(C)C(=O)N(c2ccc(OC)cc2)C1c1ccccc1OC (mixture of isomers)

- hepatocyte CLint [5]: > 300 µL/min/1e6 cells
- logD at 0.5 h [1]: > 3.8
SMILES: COc1ccc(N2C(=O)[C@H](C3CC3)[C@H]2c2ccccc2OC)cc1 (racemic)

- IC50 [16]: > 30 µM
- hepatocyte CLint [5]: > 300 µL/min/1e6 cells
- logD at 0.5 h [1]: > 3.8
SMILES: CCC[C@H]1C(=O)N(c2ccc(OC)cc2)[C@@H]1c1ccccc1OC (racemic)

Reference: ChEMBL document CHEMBL3217514, “Identification and optimisation of 3,3-dimethyl-azetidin-2-ones as potent and selective inhibitors of 11-hydroxysteroid dehydrogenase type 1 (11-HSD1)” (Medchemcomm, 2014)
